Results: ChEMBL document CHEMBL5465560, “Selectivity Literature for EUbOPEN Chemogenomic Library” (2024)
Values belong to the molecule of their own block, whether it stands above or below them.

Assays:
[1] = target: MAP/microtubule affinity-regulating kinase 3 (Homo sapiens) (UniProt P27448); assay: Selectivity interaction (Ambit KINOMEscan and KiNATiv profiling in Jurkat cells) EUB0000090b MARK3; assay type: cell-based; conditions: at 1 µM
[2] = target: Tyrosine-protein kinase Lyn (Homo sapiens, UniProt P07948); assay: Selectivity interaction (KinomeScan (DiscoverX)) EUB0001079a LYN; conditions: at 1 µM
Tyrosine-protein kinase Lyn, sequence (P07948 2-512 limits assumed): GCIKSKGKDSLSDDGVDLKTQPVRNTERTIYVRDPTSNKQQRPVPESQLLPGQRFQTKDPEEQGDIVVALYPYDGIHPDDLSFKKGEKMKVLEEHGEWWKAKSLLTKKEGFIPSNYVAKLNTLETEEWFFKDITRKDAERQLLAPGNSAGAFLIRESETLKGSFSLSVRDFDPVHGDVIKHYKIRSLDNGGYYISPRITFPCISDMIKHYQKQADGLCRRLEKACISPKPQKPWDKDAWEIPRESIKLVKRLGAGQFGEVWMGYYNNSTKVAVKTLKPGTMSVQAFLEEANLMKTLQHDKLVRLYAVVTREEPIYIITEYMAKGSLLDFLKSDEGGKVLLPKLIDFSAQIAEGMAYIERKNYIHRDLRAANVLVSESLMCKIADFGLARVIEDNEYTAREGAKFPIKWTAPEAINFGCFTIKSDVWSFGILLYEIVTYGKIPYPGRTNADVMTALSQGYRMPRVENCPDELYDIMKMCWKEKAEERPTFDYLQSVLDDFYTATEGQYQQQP

[3] = target: T1, Calcium/calmodulin-dependent protein kinase type IV (Homo sapiens) (UniProt Q16566); assay: Selectivity interaction (Millipore kinase profiler) EUB0000124b CAMK4; conditions: at 10 µM
T1 sequence (whole entry): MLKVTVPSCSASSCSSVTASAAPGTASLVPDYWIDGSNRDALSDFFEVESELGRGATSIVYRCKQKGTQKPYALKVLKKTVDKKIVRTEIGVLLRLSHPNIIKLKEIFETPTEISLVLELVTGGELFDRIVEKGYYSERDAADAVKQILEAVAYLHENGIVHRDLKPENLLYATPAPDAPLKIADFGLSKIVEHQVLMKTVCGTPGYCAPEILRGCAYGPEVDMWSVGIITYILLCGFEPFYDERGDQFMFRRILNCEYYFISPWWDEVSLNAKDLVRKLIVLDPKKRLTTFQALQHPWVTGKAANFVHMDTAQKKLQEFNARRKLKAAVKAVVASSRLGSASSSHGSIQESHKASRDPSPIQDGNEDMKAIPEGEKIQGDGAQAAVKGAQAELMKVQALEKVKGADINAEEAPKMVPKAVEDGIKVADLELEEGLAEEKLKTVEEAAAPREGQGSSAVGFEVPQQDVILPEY

[4] = target: T2, Serine/threonine-protein kinase Nek9 (Homo sapiens) (UniProt Q8TD19); assay: Selectivity interaction (ActivX KiNativ screen (ex vivo kinase selectivity in human PBMCs)) EUB0001619a NEK9; assay type: cell-based; conditions: PBMC, at 1 µM
T2 sequence (whole entry): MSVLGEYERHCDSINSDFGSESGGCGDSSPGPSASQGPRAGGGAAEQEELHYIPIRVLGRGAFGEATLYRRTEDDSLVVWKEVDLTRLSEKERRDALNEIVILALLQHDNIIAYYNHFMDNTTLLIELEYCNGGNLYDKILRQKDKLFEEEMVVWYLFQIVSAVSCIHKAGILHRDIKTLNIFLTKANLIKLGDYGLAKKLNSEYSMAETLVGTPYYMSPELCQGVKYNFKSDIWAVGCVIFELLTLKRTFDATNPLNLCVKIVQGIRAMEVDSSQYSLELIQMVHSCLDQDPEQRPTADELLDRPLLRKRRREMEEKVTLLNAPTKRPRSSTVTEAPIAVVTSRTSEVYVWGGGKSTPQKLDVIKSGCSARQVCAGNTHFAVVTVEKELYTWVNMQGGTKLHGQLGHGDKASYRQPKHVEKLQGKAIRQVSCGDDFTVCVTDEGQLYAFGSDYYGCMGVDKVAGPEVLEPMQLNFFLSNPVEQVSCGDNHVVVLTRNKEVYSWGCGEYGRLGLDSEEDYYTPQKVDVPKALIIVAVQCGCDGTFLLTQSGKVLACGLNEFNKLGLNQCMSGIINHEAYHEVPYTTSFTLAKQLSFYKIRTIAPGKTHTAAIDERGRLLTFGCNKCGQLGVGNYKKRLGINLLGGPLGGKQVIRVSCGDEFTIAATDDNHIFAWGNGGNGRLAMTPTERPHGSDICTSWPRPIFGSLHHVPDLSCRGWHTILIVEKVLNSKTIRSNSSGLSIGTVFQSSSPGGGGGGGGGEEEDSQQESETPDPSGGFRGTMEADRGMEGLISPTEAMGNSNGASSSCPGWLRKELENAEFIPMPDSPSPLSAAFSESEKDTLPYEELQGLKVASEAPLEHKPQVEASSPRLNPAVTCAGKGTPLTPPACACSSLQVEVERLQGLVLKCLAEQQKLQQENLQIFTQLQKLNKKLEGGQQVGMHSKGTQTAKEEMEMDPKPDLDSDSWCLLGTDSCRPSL

[5] = target: Insulin-like growth factor 1 receptor (Homo sapiens, UniProt P08069); assay: Selectivity interaction (KinomeScan (DiscoverX)) EUB0000045b IGF1R
Insulin-like growth factor 1 receptor, sequence (P08069 31-736 limits assumed): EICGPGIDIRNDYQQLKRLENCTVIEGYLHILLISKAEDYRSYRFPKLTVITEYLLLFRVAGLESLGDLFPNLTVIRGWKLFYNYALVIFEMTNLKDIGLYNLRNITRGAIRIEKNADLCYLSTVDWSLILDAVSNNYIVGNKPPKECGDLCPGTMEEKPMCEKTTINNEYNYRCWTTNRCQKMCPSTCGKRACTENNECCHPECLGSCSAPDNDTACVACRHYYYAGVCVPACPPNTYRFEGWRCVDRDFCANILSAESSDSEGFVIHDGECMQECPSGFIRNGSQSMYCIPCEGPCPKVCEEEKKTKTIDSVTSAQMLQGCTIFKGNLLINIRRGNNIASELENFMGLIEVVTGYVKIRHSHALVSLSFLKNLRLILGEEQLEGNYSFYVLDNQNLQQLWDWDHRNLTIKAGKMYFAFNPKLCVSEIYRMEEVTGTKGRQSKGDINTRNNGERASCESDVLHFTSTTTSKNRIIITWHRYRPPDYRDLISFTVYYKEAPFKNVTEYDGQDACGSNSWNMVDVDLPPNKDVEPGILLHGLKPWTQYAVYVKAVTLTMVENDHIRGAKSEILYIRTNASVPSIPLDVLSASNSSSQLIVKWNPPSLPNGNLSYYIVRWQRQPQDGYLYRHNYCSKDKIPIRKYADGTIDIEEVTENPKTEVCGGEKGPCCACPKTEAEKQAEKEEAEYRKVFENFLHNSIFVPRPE
Insulin-like growth factor 1 receptor, sequence (P08069 741-1367 limits assumed): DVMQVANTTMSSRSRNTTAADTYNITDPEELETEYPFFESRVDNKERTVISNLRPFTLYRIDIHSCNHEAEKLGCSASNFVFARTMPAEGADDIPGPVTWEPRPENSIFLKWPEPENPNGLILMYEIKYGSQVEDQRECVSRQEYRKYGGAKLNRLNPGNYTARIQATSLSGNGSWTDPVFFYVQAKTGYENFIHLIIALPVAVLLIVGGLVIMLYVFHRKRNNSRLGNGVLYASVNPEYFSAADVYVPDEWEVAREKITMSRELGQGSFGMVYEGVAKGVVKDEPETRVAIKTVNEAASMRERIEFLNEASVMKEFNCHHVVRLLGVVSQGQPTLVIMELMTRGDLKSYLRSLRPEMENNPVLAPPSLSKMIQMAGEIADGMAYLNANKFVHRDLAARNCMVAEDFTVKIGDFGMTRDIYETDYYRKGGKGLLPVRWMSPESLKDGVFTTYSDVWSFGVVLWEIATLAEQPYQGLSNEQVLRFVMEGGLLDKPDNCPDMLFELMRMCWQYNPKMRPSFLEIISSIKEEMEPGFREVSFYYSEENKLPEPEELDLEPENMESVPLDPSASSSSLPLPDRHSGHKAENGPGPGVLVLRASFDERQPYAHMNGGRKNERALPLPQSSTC

[6] = target: T3, Serine/threonine-protein kinase Nek3 (Homo sapiens) (UniProt P51956); conditions: at 10 µM
T3 sequence (whole entry): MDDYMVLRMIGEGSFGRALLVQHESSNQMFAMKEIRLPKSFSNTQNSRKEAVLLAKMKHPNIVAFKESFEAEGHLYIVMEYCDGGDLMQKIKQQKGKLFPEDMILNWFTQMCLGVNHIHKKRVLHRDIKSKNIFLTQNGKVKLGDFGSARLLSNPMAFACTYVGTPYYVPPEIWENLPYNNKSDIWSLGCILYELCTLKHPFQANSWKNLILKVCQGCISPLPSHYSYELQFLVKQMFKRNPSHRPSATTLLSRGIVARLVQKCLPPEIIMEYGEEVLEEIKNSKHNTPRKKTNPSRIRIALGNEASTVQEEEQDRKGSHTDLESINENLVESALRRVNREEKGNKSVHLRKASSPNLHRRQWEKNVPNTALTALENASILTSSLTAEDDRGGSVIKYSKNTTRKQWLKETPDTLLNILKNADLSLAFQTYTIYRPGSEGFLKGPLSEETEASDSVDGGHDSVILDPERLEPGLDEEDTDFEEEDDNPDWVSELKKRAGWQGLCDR

[7] = target: Ribosomal protein S6 kinase beta-1 (Homo sapiens, UniProt P23443); assay: Selectivity interaction (ActivX KiNativ screen (kinase selectivity in THP-1 cell lysates)) EUB0000639a RPS6KB1; assay type: subcellular; conditions: lysate, at 0.01 µM
Ribosomal protein S6 kinase beta-1, sequence (P23443 whole entry, looked up): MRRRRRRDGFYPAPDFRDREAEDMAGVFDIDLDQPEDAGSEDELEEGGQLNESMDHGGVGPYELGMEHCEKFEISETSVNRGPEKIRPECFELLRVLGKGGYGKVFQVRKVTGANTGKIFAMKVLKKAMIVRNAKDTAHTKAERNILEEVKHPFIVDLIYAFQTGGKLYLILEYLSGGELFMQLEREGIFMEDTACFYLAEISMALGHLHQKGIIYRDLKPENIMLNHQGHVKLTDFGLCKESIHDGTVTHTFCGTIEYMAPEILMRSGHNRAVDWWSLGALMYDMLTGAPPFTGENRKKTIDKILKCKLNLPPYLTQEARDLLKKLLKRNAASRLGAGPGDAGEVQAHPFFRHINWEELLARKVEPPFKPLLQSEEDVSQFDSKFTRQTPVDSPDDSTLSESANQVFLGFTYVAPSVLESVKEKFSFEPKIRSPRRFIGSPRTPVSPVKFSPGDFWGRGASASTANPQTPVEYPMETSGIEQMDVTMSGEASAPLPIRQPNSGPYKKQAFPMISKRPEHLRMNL

[8] = target: Cyclin-dependent kinase 5/CDK5 activator 1 (Homo sapiens) (UniProt Q00535+Q15078); assay: Selectivity interaction (ProQinase) EUB0000171b CDK5; assay type: protein-complex assay; conditions: at 1 µM
Cyclin-dependent kinase 5/CDK5 activator 1 (Homo sapiens), sequence (Q00535 whole entry): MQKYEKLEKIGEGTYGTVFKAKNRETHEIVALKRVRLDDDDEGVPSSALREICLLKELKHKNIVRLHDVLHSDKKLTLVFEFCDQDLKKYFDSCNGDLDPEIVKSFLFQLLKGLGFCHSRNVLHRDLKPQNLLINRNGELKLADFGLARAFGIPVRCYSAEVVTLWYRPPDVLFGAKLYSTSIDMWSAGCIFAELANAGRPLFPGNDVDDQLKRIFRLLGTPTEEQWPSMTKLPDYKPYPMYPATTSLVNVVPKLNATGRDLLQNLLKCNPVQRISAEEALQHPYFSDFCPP
Cyclin-dependent kinase 5/CDK5 activator 1 (Homo sapiens), sequence (Q15078 99-307 partner limits assumed): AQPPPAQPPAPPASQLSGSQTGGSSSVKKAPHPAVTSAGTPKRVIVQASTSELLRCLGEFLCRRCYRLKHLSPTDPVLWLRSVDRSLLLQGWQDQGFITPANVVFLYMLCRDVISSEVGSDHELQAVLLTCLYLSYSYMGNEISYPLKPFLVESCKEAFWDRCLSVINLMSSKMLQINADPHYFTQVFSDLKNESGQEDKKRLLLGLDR

[9] = target: Serine/threonine-protein kinase PAK 4 (Homo sapiens, UniProt O96013); assay: Selectivity interaction (KinomeScan (DiscoverX)) EUB0000695a PAK4; conditions: at 100 nM
Serine/threonine-protein kinase PAK 4, sequence (O96013 whole entry, looked up): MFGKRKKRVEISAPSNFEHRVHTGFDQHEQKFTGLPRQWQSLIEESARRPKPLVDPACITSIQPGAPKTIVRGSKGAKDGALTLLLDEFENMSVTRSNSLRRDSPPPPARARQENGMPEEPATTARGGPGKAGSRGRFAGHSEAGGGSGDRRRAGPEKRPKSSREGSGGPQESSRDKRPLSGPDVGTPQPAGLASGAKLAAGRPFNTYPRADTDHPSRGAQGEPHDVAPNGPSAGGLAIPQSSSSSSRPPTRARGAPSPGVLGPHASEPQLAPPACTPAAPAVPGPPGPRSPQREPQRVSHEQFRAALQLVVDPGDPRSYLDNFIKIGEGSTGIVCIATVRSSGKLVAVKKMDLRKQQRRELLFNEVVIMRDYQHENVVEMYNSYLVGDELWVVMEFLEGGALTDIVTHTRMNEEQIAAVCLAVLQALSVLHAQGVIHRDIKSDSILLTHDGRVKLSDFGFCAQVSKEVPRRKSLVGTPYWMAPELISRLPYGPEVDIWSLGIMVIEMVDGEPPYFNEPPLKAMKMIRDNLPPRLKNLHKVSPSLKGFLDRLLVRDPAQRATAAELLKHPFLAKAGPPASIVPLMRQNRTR

MAP/microtubule affinity-regulating kinase 3 (Homo sapiens), sequence (P27448 whole entry, looked up): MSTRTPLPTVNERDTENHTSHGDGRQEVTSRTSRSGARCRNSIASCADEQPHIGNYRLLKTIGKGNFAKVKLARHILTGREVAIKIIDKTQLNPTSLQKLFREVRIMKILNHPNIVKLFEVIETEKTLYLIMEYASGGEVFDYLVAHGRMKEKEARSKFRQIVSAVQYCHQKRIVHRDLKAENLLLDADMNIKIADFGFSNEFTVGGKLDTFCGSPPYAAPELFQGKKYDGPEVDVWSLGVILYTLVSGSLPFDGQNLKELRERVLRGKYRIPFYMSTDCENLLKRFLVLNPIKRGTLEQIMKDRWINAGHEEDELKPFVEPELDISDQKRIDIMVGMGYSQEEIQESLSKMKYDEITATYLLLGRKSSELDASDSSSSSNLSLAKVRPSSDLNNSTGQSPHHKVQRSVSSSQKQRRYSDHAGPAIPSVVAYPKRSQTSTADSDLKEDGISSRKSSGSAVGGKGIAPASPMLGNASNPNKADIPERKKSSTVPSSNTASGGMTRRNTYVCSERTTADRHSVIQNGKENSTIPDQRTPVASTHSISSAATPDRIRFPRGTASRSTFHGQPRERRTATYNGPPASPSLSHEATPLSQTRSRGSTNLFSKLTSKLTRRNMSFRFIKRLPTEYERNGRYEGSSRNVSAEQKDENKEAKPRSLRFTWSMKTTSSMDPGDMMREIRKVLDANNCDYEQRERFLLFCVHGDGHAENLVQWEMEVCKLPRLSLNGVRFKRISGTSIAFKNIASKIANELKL

Compound: CN(C)C/C=C/C(=O)Nc1ccc(C(=O)N2CCCC(Nc3ncc(Cl)c(-c4c[nH]c5ccccc45)n3)C2)cc1 (stereo not given)
% of control [1]: 88%

Compound: Nc1cnc(N2CCc3cc(S(=O)(=O)Nc4c(F)cc(Cl)cc4F)cc(N4CCCC4=O)c32)nc1 [TP-020n]
% of control [2]: 88%

% of control [3]: 97%
Compound: CC(=O)Nc1cccc(-n2c(=O)n(C3CC3)c(=O)c3c(Nc4ccc(I)cc4F)n(C)c(=O)c(C)c32)c1

Compound: N#Cc1cccc(-c2c[nH]c3ncnc(N4CCOCC4)c23)c1
% of inhibition [4]: -31%

Compound: C=CC(=O)Nc1cc(-n2c(=O)ccc3cnc4ccc(-c5ccc(NS(C)(=O)=O)cc5)cc4c32)ccc1C
% of control ([5]; at 1 µM): 100% | % of control ([5]; at 10 µM): 80%

Compound: Cc1cc([C@@H](C)Nc2ccccc2C(=O)O)c2nc(N3CCOCC3)cc(=O)n2c1 [AZD-6482]
% of control [6]: 100%

% of inhibition [7]: -0.4%
Compound: CC[C@@H]1[C@H](F)C(=O)N[C@@H]1COc1nccc2cc(C(N)=O)c(OC)cc12 [ZIMLOVISERTIB]

% of control [8]: 74%
Compound: C=CC(=O)Nc1cccc(C(=O)Nc2ccc(Nc3cc(-c4[nH]c(SC)nc4C)ccn3)cc2)c1

Compound: Cc1cc(F)c(C(=O)Nc2cccc(-c3nncn3C(C)C)n2)cc1-n1cnc(C2CC2)c1
% of control [9]: 99%
